According to US4016166A, “1-Nitrophenylquinazoline-2,4(1H,3H)-diones” (Hisamitsu Pharmaceutical Co., Inc., priority 1973, dated 1977):
Read-outs that look alike come from different tables or passages of the source.

Columns and labels:
dd-strain male mice = assay type: in vivo; conditions: mouse, 72 hours
Description: The lethal dose was estimated from the death of animals 72 hours after administration.

righting reflex = assay: Central nervous system depressive effect (disappearance of righting reflex, mouse); assay type: in vivo, dd-strain male mice; conditions: ip, read-out: CNS depressive effect (dose required for disappearance of righting reflex)
Description: Each test compound suspended in 0.5 % tragacanth-saline solution was injected intraperitoneally to dd-strain male mice (16-24 g). The disappearance of righting reflex was observed under noiseless circumstances. The dose required for the dissappearance of righting reflex is indicated with the following notations: […]

[1] = tested on: acetic acid writhing syndrome; assay: Analgetic effect (acetic acid writhing, mouse); assay type: in vivo, dd-strain male mice; conditions: oral, read-out: analgetic effect ED50 (95% C.L.)
Description: Each test compound suspended in 0.5 % tragacanth-saline solution was orally administered to dd-strain male mice (18-20 g). After one hour 0.6 % acetic acid solution was intraperitoneally injected in a volume of […].

carrageenin edema = assay: Anti-inflammatory effect (carrageenin edema, hind paw, rat); assay type: in vivo, Wistar-strain male rats; conditions: oral, 3 hours after carrageenin, read-out: anti-inflammatory effect (inhibition percentage of carrageenin edema)
Description: A group of five Wistar-strain male rats (100-150 g) were orally administered with each test compound suspended in 0.5 % tragacanth-saline solution. After 30 minutes 0.5 %-1.0 % carrageenin suspended in the water for injection was injected subcutaneously to a hind paw. After 3 hours the carrageenin edema was measured by volume and the inhibition percentage was determined with respect to the results for the control animals. The inhibition percentages were shown with the notations as follows: […]

## CC(C)n1c(=O)c2ccccc2n(-c2cccc([N+](=O)[O-])c2)c1=O
dd-strain male mice; i.p.
  acute toxicity (lethal dose): > 1000 mg/kg
dd-strain male mice; p.o.
  acute toxicity (lethal dose): > 2000 mg/kg
Righting reflex; mouse
  minimal effective dose: 30 to 100 mg/kg
[1]
  ED50: 2.9 mg/kg
Carrageenin edema
  inhibition in vivo at 10 mg/kg: 16 to 30%
  inhibition in vivo at 50 mg/kg: 46 to 60%

## O=c1c2ccccc2n(-c2cccc([N+](=O)[O-])c2)c(=O)n1CC1CC1
dd-strain male mice; i.p.
  acute toxicity (lethal dose): 1000 mg/kg
Righting reflex; mouse
  minimal effective dose: 100 to 300 mg/kg
Carrageenin edema
  inhibition in vivo at 10 mg/kg: 31 to 45%
  inhibition in vivo at 50 mg/kg: 46 to 60%

## C#CCn1c(=O)c2ccccc2n(-c2cccc([N+](=O)[O-])c2)c1=O
dd-strain male mice; i.p.
  acute toxicity (lethal dose): > 1000 mg/kg
dd-strain male mice; p.o.
  acute toxicity (lethal dose): > 2000 mg/kg
Righting reflex; mouse
  minimal effective dose: > 1000 mg/kg
[1]
  ED50: 40 mg/kg
Carrageenin edema
  inhibition in vivo at 10 mg/kg: < 15%
  inhibition in vivo at 50 mg/kg: 31 to 45%

## Cn1c(=O)c2ccccc2n(-c2cccc([N+](=O)[O-])c2)c1=O [Compound 2, 1-(m-nitrophenyl)-3-methylquinazoline-2,4(1H, 3H)-dione]
dd-strain male mice; i.p.
  acute toxicity (lethal dose): > 1000 mg/kg
dd-strain male mice; p.o.
  acute toxicity (lethal dose): > 2000 mg/kg
Righting reflex; mouse
  minimal effective dose: 100 to 300 mg/kg
[1]
  ED50: 12.5 mg/kg
Carrageenin edema
  inhibition in vivo at 10 mg/kg: 31 to 45%
  inhibition in vivo at 50 mg/kg: 46 to 60%

## CCn1c(=O)c2ccccc2n(-c2cccc([N+](=O)[O-])c2)c1=O [Compound 3, 1-(m-nitrophenyl)-3-ethylquinazoline-2,4(1H, 3H)-dione]
dd-strain male mice; i.p.
  acute toxicity (lethal dose): > 1000 mg/kg
dd-strain male mice; p.o.
  acute toxicity (lethal dose): > 2000 mg/kg
Righting reflex; mouse
  minimal effective dose: 30 to 100 mg/kg
[1]
  ED50: 6 mg/kg
Carrageenin edema
  inhibition in vivo at 10 mg/kg: > 61%
  inhibition in vivo at 50 mg/kg: > 61%

## CCCn1c(=O)c2ccccc2n(-c2cccc([N+](=O)[O-])c2)c1=O [Compound 4, 1-(m-nitrophenyl)-3-propylquinazoline-2,4(1H,3H)-dione]
dd-strain male mice; i.p.
  acute toxicity (lethal dose): 1000 mg/kg
dd-strain male mice; p.o.
  acute toxicity (lethal dose): > 2000 mg/kg
Righting reflex; mouse
  minimal effective dose: > 1000 mg/kg
[1]
  ED50: 51 mg/kg
Carrageenin edema
  inhibition in vivo at 10 mg/kg: < 15%
  inhibition in vivo at 50 mg/kg: 16 to 30%

## C=CCn1c(=O)c2ccccc2n(-c2cccc([N+](=O)[O-])c2)c1=O [Compound 6, 1-(m-nitrophenyl)-3-allylquinazoline-2,4(1H, 3H)-dione]
dd-strain male mice; i.p.
  acute toxicity (lethal dose): > 1000 mg/kg
dd-strain male mice; p.o.
  acute toxicity (lethal dose): 2000 mg/kg
Righting reflex; mouse
  minimal effective dose: > 1000 mg/kg
[1]
  ED50: > 100 mg/kg
Carrageenin edema
  inhibition in vivo at 10 mg/kg: 16 to 30%
  inhibition in vivo at 50 mg/kg: 31 to 45%

## O=c1c2ccccc2n(-c2cccc([N+](=O)[O-])c2)c(=O)n1CCF [Compound 10]
dd-strain male mice; i.p.
  acute toxicity (lethal dose): > 1000 mg/kg
dd-strain male mice; p.o.
  acute toxicity (lethal dose): > 2000 mg/kg
Righting reflex; mouse
  minimal effective dose: 30 to 100 mg/kg
[1]
  ED50: 1.48 mg/kg
Carrageenin edema
  inhibition in vivo at 10 mg/kg: > 61%
  inhibition in vivo at 50 mg/kg: 46 to 60%

## O=c1c2ccccc2n(-c2cccc([N+](=O)[O-])c2)c(=O)n1CCCl [Compound 11]
dd-strain male mice; i.p.
  acute toxicity (lethal dose): > 1000 mg/kg
dd-strain male mice; p.o.
  acute toxicity (lethal dose): > 2000 mg/kg
Righting reflex; mouse
  minimal effective dose: 100 to 300 mg/kg
[1]
  ED50: 5.5 mg/kg
Carrageenin edema
  inhibition in vivo at 50 mg/kg: 16 to 30%

## O=c1c2ccccc2n(-c2cccc([N+](=O)[O-])c2)c(=O)n1CC(F)(F)F [Compound 12, 1-(m-nitrophenyl)-3-(2,2,2-trifluoroethyl) quinazoline-2,4(1H, 3H)-dione]
dd-strain male mice; i.p.
  acute toxicity (lethal dose): > 1000 mg/kg
dd-strain male mice; p.o.
  acute toxicity (lethal dose): > 2000 mg/kg
Righting reflex; mouse
  minimal effective dose: > 1000 mg/kg
[1]
  ED50: 44 mg/kg
Carrageenin edema
  inhibition in vivo at 10 mg/kg: 16 to 30%
  inhibition in vivo at 50 mg/kg: 31 to 45%

## O=c1c2ccccc2n(-c2cccc([N+](=O)[O-])c2)c(=O)n1CCO [Compound 13]
dd-strain male mice; p.o.
  acute toxicity (lethal dose): 2000 mg/kg
Righting reflex; mouse
  minimal effective dose: 10 to 30 mg/kg
[1]
  ED50: 2.25 mg/kg
Carrageenin edema
  inhibition in vivo at 50 mg/kg: 31 to 45%

## CCOCCn1c(=O)c2ccccc2n(-c2cccc([N+](=O)[O-])c2)c1=O [Compound 16, 1-(m-nitrophenyl)-3-(2-ethoxyethyl)quinazoline-2,4(1H, 3H)-dione]
dd-strain male mice; i.p.
  acute toxicity (lethal dose): > 1000 mg/kg
dd-strain male mice; p.o.
  acute toxicity (lethal dose): > 2000 mg/kg
Righting reflex; mouse
  minimal effective dose: 30 to 100 mg/kg
[1]
  ED50: 2.15 mg/kg
Carrageenin edema
  inhibition in vivo at 50 mg/kg: 16 to 30%

## O=c1c2ccccc2n(-c2cccc([N+](=O)[O-])c2)c(=O)n1CCOCCO [Compound 17]
dd-strain male mice; i.p.
  acute toxicity (lethal dose): 1000 mg/kg
dd-strain male mice; p.o.
  acute toxicity (lethal dose): 2000 mg/kg
Righting reflex; mouse
  minimal effective dose: 30 to 100 mg/kg
[1]
  ED50: 3.7 mg/kg
Carrageenin edema
  inhibition in vivo at 50 mg/kg: 16 to 30%

## CC(=O)OCCn1c(=O)c2ccccc2n(-c2cccc([N+](=O)[O-])c2)c1=O [Compound 18]
dd-strain male mice; i.p.
  acute toxicity (lethal dose): > 1000 mg/kg
dd-strain male mice; p.o.
  acute toxicity (lethal dose): 2000 mg/kg
Righting reflex; mouse
  minimal effective dose: 10 to 30 mg/kg
[1]
  ED50: 1.7 mg/kg
Carrageenin edema
  inhibition in vivo at 50 mg/kg: 16 to 30%

## Cn1c(=O)c2ccccc2n(-c2cccc([N+](=O)[O-])c2)c1=S [Compound 23]
dd-strain male mice; i.p.
  acute toxicity (lethal dose): > 1000 mg/kg
Righting reflex; mouse
  minimal effective dose: > 1000 mg/kg
[1]
  ED50: > 100 mg/kg
Carrageenin edema
  inhibition in vivo at 10 mg/kg: < 15%
  inhibition in vivo at 50 mg/kg: 16 to 30%

## CCn1c(=O)c2ccccc2n(-c2cccc([N+](=O)[O-])c2)c1=S [Compound 24, 1-(m-nitrophenyl)-3-ethyl-2-thio-4-oxo-1,2,3,4-tetrahydroquinazoline]
dd-strain male mice; i.p.
  acute toxicity (lethal dose): > 1000 mg/kg
Righting reflex; mouse
  minimal effective dose: 300 to 1000 mg/kg
[1]
  ED50: 3.4 mg/kg
Carrageenin edema
  inhibition in vivo at 10 mg/kg: 31 to 45%
  inhibition in vivo at 50 mg/kg: 46 to 60%

## O=c1c2ccccc2n(-c2cccc([N+](=O)[O-])c2)c(=S)n1CC(F)(F)F [Compound 26]
dd-strain male mice; i.p.
  acute toxicity (lethal dose): > 1000 mg/kg
dd-strain male mice; p.o.
  acute toxicity (lethal dose): > 2000 mg/kg
Righting reflex; mouse
  minimal effective dose: > 1000 mg/kg
[1]
  ED50: > 100 mg/kg
Carrageenin edema
  inhibition in vivo at 50 mg/kg: < 15%

## CCn1c(=O)c2ccccc2n(-c2cccc(C(F)(F)F)c2)c1=O [R1=drawing 18, R2=C2 H5, reference compound]
dd-strain male mice; i.p.
  acute toxicity (lethal dose): 456 mg/kg
dd-strain male mice; p.o.
  acute toxicity (lethal dose): > 4000 mg/kg
Righting reflex; mouse
  minimal effective dose: > 1000 mg/kg
[1]
  ED50: > 100 mg/kg
Carrageenin edema
  inhibition in vivo at 10 mg/kg: < 15%
  inhibition in vivo at 50 mg/kg: 31 to 45%

## O=c1c2ccccc2n(-c2cccc(C(F)(F)F)c2)c(=O)n1CCO [R1=drawing 18, R2=CH2 CH2 OH, reference compound]
dd-strain male mice; i.p.
  acute toxicity (lethal dose): 200 mg/kg
dd-strain male mice; p.o.
  acute toxicity (lethal dose): 970 mg/kg
Righting reflex; mouse
  minimal effective dose: 30 to 100 mg/kg
[1]
  ED50: 35 mg/kg
Carrageenin edema
  inhibition in vivo at 10 mg/kg: < 15%
  inhibition in vivo at 50 mg/kg: 31 to 45%

## O=C(O)c1ccccc1Nc1cccc(C(F)(F)F)c1 [flufenamic acid, reference compound]
Righting reflex; mouse
  minimal effective dose: > 1000 mg/kg

## Cc1ccccc1-n1c(C)nc2ccccc2c1=O [methaqualone, reference compound]
Righting reflex; Mus musculus
  minimal effective dose: 10 to 30 mg/kg

## CCCCC1C(=O)N(c2ccccc2)N(c2ccccc2)C1=O [phenylbutazone, reference compound]
Righting reflex; mouse
  minimal effective dose: 300 to 1000 mg/kg
